Measurements reported in patent publication US11497761B2, “Compositions for the treatment of metastatic cancer” (priority 2019, dated 2022).

Tests used:
[1] = Stability of monolaurin stock solution; type: physicochemical; conditions: 4.78 mM with 0.75% PS-80 (Stock Solution C), 4 degrees C
Method: Materials for Project 1 Study-Pancreatic Cancer • Blood collection tubes: BD Vacutainer® 10 mL sodium heparin tube (BD catalog #367874)). • Vita-Assay™ AN6W plate. • Blood: pancreatic cancer, up to 40-mL blood collected from patients and provided by Conversant Bio. • Stock solution and dilutions • Monolaurin 4.78 mM with 0.75% PS-80 (Stock Solution C), 13.1 mg monolaurin in 0.25 mL PS-80 and 0.75 mL water and 0.1 mL of this solution was diluted with 0.9 mL of RPMI. Stocks are stable for 2 weeks at 4 degrees C. Monolaurin used is an equal mixture of 1-, 2-, and 3-isomers of monolaurin. • Monolaurin dilution: add 209.2 uL, 627.6 uL, and 1.2552 mL of monolaurin in 0.75% PS-80 (Stock solution C), and dilute to 10 mL of media to achieve final concentrations of 100 uM, 200 uM, 300 uM as indicated.
Materials for Project 1 Study-Prostate Cancer • Blood collection tubes: BD Vacutainer® 10 mL sodium heparin tube (BD catalog #367874)). • Vita-Assay™ AN6W plate. • Blood: prostate cancer, up to 40-mL blood was collected from patients and provided by Conversant bio. • Stock Solution and Dilutions • Monolaurin, 4.78 mM with 0.75% PS-80 (Stock Solution C), 13.1 mg monolaurin in 0.25 mL PS-80 and 0.75 mL water and 0.1 mL of this solution was diluted with 0.9 mL of RPMI. Stock solutions were stable for 2 weeks at 4 degrees C. […]

[2] = system: primary human T-cell signaling; conditions: in vitro, cited from earlier work
[3] = system: Ehrlich ascites tumor cells; conditions: in vitro, Kato et al. 1971; cited from earlier work
[4] = system: iCTCs from prostate cancer patients; assay: iCTC drug response (CDR) testing ex vivo, Project 1 Study-Prostate Cancer; type: cell-based, human; conditions: for number of live iCTCs remaining after treatment: 72 hours
Method: Materials for Project 1 Study-Prostate Cancer • Blood collection tubes: BD Vacutainer® 10 mL sodium heparin tube (BD catalog #367874)). • Vita-Assay™ AN6W plate. • Blood: prostate cancer, up to 40-mL blood was collected from patients and provided by Conversant bio. • Stock Solution and Dilutions • Monolaurin, 4.78 mM with 0.75% PS-80 (Stock Solution C), 13.1 mg monolaurin in 0.25 mL PS-80 and 0.75 mL water and 0.1 mL of this solution was diluted with 0.9 mL of RPMI. Stock solutions were stable for 2 weeks at 4 degrees C. Monolaurin used is an equal mixture of 1-, 2-, and 3-isomers of monolaurin. • Dilution: Monolaurin: Add 209.2 uL, 627.6 uL, and 1.2552 mL of CPI-2400 in 0.75% PS-80 (Stock solution C) and dilute to 10 mL of media to achieve final concentrations of 100 uM, 200 uM, and 300 uM final concentrations of drug cell exposure respectively.
With respect to FIG. 1, a depiction of a generalized experimental scheme for testing efficacy of a composition in accordance with an exemplary embodiment of the present invention against iCTC from the blood of prostate cancer patients is shown. Invasive circulating tumor cells (iCTCs) were obtained from venous blood of the individual with advanced prostate cancer, cultured and exposed to a specific drug or battery of drugs at 1×, 2×, and 3× concentrations in vitro for 3 days. Drug responsiveness was measured by automatic flow cytometry using the reduction of live iCTCs in the treated samples from the number of live iCTCs in the untreated controls. The greater the reduction of iCTCs of a given drug at a given dose indicates greater responsiveness to that dose of the drug. Four AN6W plates were used for each sample. Control and drug at each dose in triplicate were incubated for 72 hours. The iCTCs were measured by flow cytometry and viewed by microscopy as described. The complete culture medium contains 10% fetal bovine serum.
The complete experimental procedure for The Project 1 Study-Prostate Cancer followed the same procedure as that used with respect to The Project 1 Study-Pancreatic Cancer. With reference to FIGS. 5 and 6, flow cytometry evaluation: Count tumor cells and immune cells by using a 4-channel (FITC, PE, APC, and 7AAD) flow cytometer. iCTC is defined as: EPI^+TP^+CD45^−[…] • FIG. 5 depicts images of solitary and clustered iCTCs with specific markers in a cytospin preparation of the RP-19 sample. […] Pink arrows indicated iCTC clusters. A tumor cell was positively stained with green fluorescence-epithelial marker (GF-Epi), blue fluorescence nucleic acid dye (BF-Hoechst) and red fluorescence tumor progenitor (TP) marker (RF-TP). White arrows indicate WBCs that were not stained by Epi and TP tumor markers. Bar=40 μm. Cells from RP-19 were cultured for 3 days before staining.

## CCCCCCCCCCCC(=O)OCC(O)CO (stereo not drawn) [Monolaurin, glycerol monolaurate]
[1]
  stock solution stable for: 2 weeks
[2]; formulated in 95% ethanol
  concentration interfering with activated T cell adhesion and actin organization: 10 to 20 µg/mL
  concentration interfering with activated T cell adhesion and actin organization (equivalent): 36 to 73 µM
[2]
  concentrations inhibiting primary human T-cell signaling: 36 to 73 µM
[3]
  anticancer activity: only weak activity
[4]; iCTCs from prostate cancer patients
  kill rates of iCTCs (summary): high kill rates
[4]; patient RP02 (Taxotere), iCTC control 450, 100 uM monolaurin
  number of live iCTCs remaining after treatment: 0
[4]; patient RP02 (Taxotere), iCTC control 450, 200 uM monolaurin
  number of live iCTCs remaining after treatment: 0
[4]; patient RP02 (Taxotere), iCTC control 450, 300 uM monolaurin
  number of live iCTCs remaining after treatment: 0
[4]; patient RP06 (Taxotere), iCTC control 40, 100 uM monolaurin
  number of live iCTCs remaining after treatment: 10
[4]; patient RP06 (Taxotere), iCTC control 40, 200 uM monolaurin
  number of live iCTCs remaining after treatment: 0
[4]; patient RP06 (Taxotere), iCTC control 40, 300 uM monolaurin
  number of live iCTCs remaining after treatment: 0
[4]; patient RP07 (Taxotere), iCTC control 200, 100 uM monolaurin
  number of live iCTCs remaining after treatment: 0
[4]; patient RP07 (Taxotere), iCTC control 200, 200 uM monolaurin
  number of live iCTCs remaining after treatment: 0
[4]; patient RP07 (Taxotere), iCTC control 200, 300 uM monolaurin
  number of live iCTCs remaining after treatment: 0
[4]; patient RP08 (Taxotere), iCTC control 60, 100 uM monolaurin
  number of live iCTCs remaining after treatment: 0
[4]; patient RP08 (Taxotere), iCTC control 60, 200 uM monolaurin
  number of live iCTCs remaining after treatment: 0
[4]; patient RP08 (Taxotere), iCTC control 60, 300 uM monolaurin
  number of live iCTCs remaining after treatment: 0
[4]; patient RP09 (Taxotere), iCTC control 225, 100 uM monolaurin
  number of live iCTCs remaining after treatment: 0
[4]; patient RP09 (Taxotere), iCTC control 225, 200 uM monolaurin
  number of live iCTCs remaining after treatment: 0
[4]; patient RP09 (Taxotere), iCTC control 225, 300 uM monolaurin
  number of live iCTCs remaining after treatment: 0
[4]; patient RP13 (Taxotere), iCTC control 75, 100 uM monolaurin
  number of live iCTCs remaining after treatment: 0
[4]; patient RP13 (Taxotere), iCTC control 75, 200 uM monolaurin
  number of live iCTCs remaining after treatment: 0
[4]; patient RP13 (Taxotere), iCTC control 75, 300 uM monolaurin
  number of live iCTCs remaining after treatment: 0
[4]; patient RP15 (Taxotere), iCTC control 50, 100 uM monolaurin
  number of live iCTCs remaining after treatment: 20
[4]; patient RP15 (Taxotere), iCTC control 50, 200 uM monolaurin
  number of live iCTCs remaining after treatment: 10
[4]; patient RP15 (Taxotere), iCTC control 50, 300 uM monolaurin
  number of live iCTCs remaining after treatment: 0
[4]; patient RP19 (Taxotere), iCTC control 425, 100 uM monolaurin
  number of live iCTCs remaining after treatment: 50
[4]; patient RP19 (Taxotere), iCTC control 425, 200 uM monolaurin
  number of live iCTCs remaining after treatment: 50
[4]; patient RP19 (Taxotere), iCTC control 425, 300 uM monolaurin
  number of live iCTCs remaining after treatment: 0
[4]; patient RP20 (Taxotere), iCTC control 50, 100 uM monolaurin
  number of live iCTCs remaining after treatment: 20
[4]; patient RP20 (Taxotere), iCTC control 50, 200 uM monolaurin
  number of live iCTCs remaining after treatment: 10
[4]; patient RP20 (Taxotere), iCTC control 50, 300 uM monolaurin
  number of live iCTCs remaining after treatment: 5
[4]; patient RP212 (Taxotere), iCTC control 55, 100 uM monolaurin
  number of live iCTCs remaining after treatment: 30
[4]; patient RP212 (Taxotere), iCTC control 55, 200 uM monolaurin
  number of live iCTCs remaining after treatment: 10
[4]; patient RP212 (Taxotere), iCTC control 55, 300 uM monolaurin
  number of live iCTCs remaining after treatment: 10
[4]; patient Rp05 (Taxotere), iCTC control 20, 100 uM monolaurin
  number of live iCTCs remaining after treatment: 15
[4]; patient Rp05 (Taxotere), iCTC control 20, 200 uM monolaurin
  number of live iCTCs remaining after treatment: 0
[4]; patient Rp05 (Taxotere), iCTC control 20, 300 uM monolaurin
  number of live iCTCs remaining after treatment: 0
